Experimental data: patent US20160271263A1 (Novo Nordisk A/S, priority 2010, published 2016)
Numbered stars: 1 amine (or outer) side, 2 acyl side, 3 side chain; on linkers, the order of the positions; unused ones are H or OH. Side chains are listed from the residue outwards. Peptide text beside a SMILES is read from it. * marks the point of attachment. C18 diacid = O=C(O)CCCCCCCCCCCCCCCCC(=O)*; γGlu = O=C(O)[C@H](CCC(=O)[*:2])N[*:1]; AEEA = NCCOCCOCC(=O)O

Molecular target: glucagon receptor (Homo sapiens, UniProt P47871)
Sequence (P47871 26-477): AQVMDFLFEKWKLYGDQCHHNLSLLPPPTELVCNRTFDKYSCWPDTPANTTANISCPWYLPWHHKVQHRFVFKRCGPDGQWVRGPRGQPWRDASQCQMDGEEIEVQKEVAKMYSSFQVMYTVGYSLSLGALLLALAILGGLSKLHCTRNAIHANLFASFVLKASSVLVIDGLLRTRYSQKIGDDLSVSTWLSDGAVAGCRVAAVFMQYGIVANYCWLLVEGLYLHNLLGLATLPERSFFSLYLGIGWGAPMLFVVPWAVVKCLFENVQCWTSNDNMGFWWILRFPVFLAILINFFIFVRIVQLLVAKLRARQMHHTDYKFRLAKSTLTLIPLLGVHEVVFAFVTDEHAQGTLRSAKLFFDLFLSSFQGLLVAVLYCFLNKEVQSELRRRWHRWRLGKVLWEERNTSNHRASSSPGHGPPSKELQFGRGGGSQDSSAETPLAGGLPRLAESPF
Test: cell-based

Row | SMILES | EC50 [nM]
1 | CC(C)C[C@H](NC(=O)[C@H](CC(C)C)NC(=O)[C@H](Cc1c[nH]c2ccccc12)NC(=O)[C@H](CCCCNC(=O)COCCOCCNC(=O)COCCOCCNC(=O)CC[C@H](NC(=O)CCCCCCCCCCCCCCCCC(=O)O)C(=O)O)NC(=O)[C@@H](NC(=O)[C@H](Cc1ccccc1)NC(=O)[C@H](CC(=O)O)NC(=O)[C@H](CCC(N)=O)NC(=O)[C@H](C)NC(=O)[C@H](CCCNC(=N)N)NC(=O)[C@H](CCCNC(=N)N)NC(=O)[C@H](CCC(=O)O)NC(=O)[C@H](CC(=O)O)NC(=O)[C@H](CC(C)C)NC(=O)[C@H](Cc1ccc(O)cc1)NC(=O)[C@H](CCCCN)NC(=O)[C@H](CO)NC(=O)[C@H](Cc1ccc(O)cc1)NC(=O)[C@H](CC(=O)O)NC(=O)[C@H](CO)NC(=O)[C@@H](NC(=O)[C@H](Cc1ccccc1)NC(=O)[C@@H](NC(=O)CNC(=O)[C@H](CCC(N)=O)NC(=O)[C@H](CO)NC(=O)[C@@H](N)Cc1c[nH]cn1)[C@@H](C)O)[C@@H](C)O)C(C)C)C(=O)N[C@@H](C)C(=O)N[C@H](C(N)=O)[C@@H](C)O [Example 32, N^ε24-([2-[2-[2-[[2-[2-[2-[[(4S)-5-hydroxy-4-[(18-hydroxy-18-oxooctadecanoyl)amino]-5-oxopentanoyl]amino]ethoxy]ethoxy]acetyl]amino]ethoxy]ethoxy]acetyl])[Glu^16, Lys^24, Leu^27, Ala^28] Glucagon peptide amide] (H-HSQGTFTSDYSKYLDERRAQDFVK([AEEA-AEEA-γGlu-C18 diacid])WLLAT-NH2; N-terminus assumed) | 0.0235
2 | CC(C)C[C@H](NC(=O)[C@H](Cc1ccc(O)cc1)NC(=O)[C@H](CCCCN)NC(=O)[C@H](CO)NC(=O)[C@H](Cc1ccc(O)cc1)NC(=O)[C@H](CC(=O)O)NC(=O)[C@H](CO)NC(=O)[C@@H](NC(=O)[C@H](Cc1ccccc1)NC(=O)[C@@H](NC(=O)CNC(=O)[C@H](CCC(N)=O)NC(=O)[C@H](CO)NC(=O)[C@@H](N)Cc1c[nH]cn1)[C@@H](C)O)[C@@H](C)O)C(=O)N[C@@H](CC(=O)O)C(=O)N[C@@H](CO)C(=O)N[C@@H](CCC(N)=O)C(=O)N[C@@H](CCCNC(=N)N)C(=O)N[C@@H](C)C(=O)N[C@@H](CCC(N)=O)C(=O)N[C@@H](CC(=O)O)C(=O)N[C@@H](Cc1ccccc1)C(=O)N[C@H](C(=O)N[C@@H](CCCCNC(=O)COCCOCCNC(=O)COCCOCCNC(=O)CC[C@H](NC(=O)CCCCCCCCCCCCCCCCC(=O)O)C(=O)O)C(=O)N[C@@H](Cc1c[nH]c2ccccc12)C(=O)N[C@@H](CC(C)C)C(=O)N[C@H](C(=O)N[C@@H](CCCCN)C(=O)N[C@H](C(=O)NCC(=O)N1CCC[C@H]1C(N)=O)[C@@H](C)O)C(C)C)C(C)C [Example 33, (N^ε24-([2-[2-[2-[[2-[2-[2-[[(4S)-5-hydroxy-4-[(18-hydroxy-18-oxooctadecanoyl)amino]-5-oxopentanoyl]amino]ethoxy]ethoxy]acetyl]amino]ethoxy]ethoxy]acetyl])[Gln^17, Lys^24, Val^27, Lys^28] Glucagonyl)-Gly-Pro amide] (H-HSQGTFTSDYSKYLDSQRAQDFVK([AEEA-AEEA-γGlu-C18 diacid])WLVKTGP-NH2; N-terminus assumed) | 0.942
3 | CC(C)C[C@H](NC(=O)[C@H](Cc1ccc(O)cc1)NC(=O)[C@H](CCCCN)NC(=O)[C@H](CO)NC(=O)[C@H](Cc1ccc(O)cc1)NC(=O)[C@H](CC(=O)O)NC(=O)[C@H](CO)NC(=O)[C@@H](NC(=O)[C@H](Cc1ccccc1)NC(=O)[C@@H](NC(=O)CNC(=O)[C@H](CCC(N)=O)NC(=O)[C@H](CO)NC(=O)[C@@H](N)Cc1c[nH]cn1)[C@@H](C)O)[C@@H](C)O)C(=O)N[C@@H](CC(=O)O)C(=O)N[C@@H](CCCCNC(=O)COCCOCCNC(=O)COCCOCCNC(=O)CC[C@H](NC(=O)CCCCCCCCCCCCCCCCC(=O)O)C(=O)O)C(=O)N[C@@H](CCCCN)C(=O)N[C@@H](CCCNC(=N)N)C(=O)N[C@@H](C)C(=O)N[C@@H](CCC(N)=O)C(=O)N[C@@H](CCC(=O)O)C(=O)N[C@@H](Cc1ccccc1)C(=O)N[C@H](C(=O)N[C@@H](CCC(N)=O)C(=O)N[C@@H](Cc1c[nH]c2ccccc12)C(=O)N[C@@H](CC(C)C)C(=O)N[C@@H](CC(C)C)C(=O)N[C@@H](CC(N)=O)C(=O)N[C@H](C(N)=O)[C@@H](C)O)C(C)C [Example 34, N^ε16-([2-[2-[2-[[2-[2-[2-[[(4S)-5-hydroxy-4-[(18-hydroxy-18-oxooctadecanoyl)amino]-5-oxopentanoyl]amino]ethoxy]ethoxy]acetyl]amino]ethoxy]ethoxy]acetyl])[Lys^16,Lys^17,Glu^21, Leu^27] Glucagon peptide amide] (H-HSQGTFTSDYSKYLDK([AEEA-AEEA-γGlu-C18 diacid])KRAQEFVQWLLNT-NH2; N-terminus assumed) | 0.018
4 | CC(C)C[C@H](NC(=O)[C@H](Cc1ccc(O)cc1)NC(=O)[C@H](CCCCN)NC(=O)[C@H](CO)NC(=O)[C@H](Cc1ccc(O)cc1)NC(=O)[C@H](CC(=O)O)NC(=O)[C@H](CO)NC(=O)[C@@H](NC(=O)[C@H](Cc1ccccc1)NC(=O)[C@@H](NC(=O)CNC(=O)[C@H](CCC(N)=O)NC(=O)[C@H](CO)NC(=O)[C@@H](N)Cc1c[nH]cn1)[C@@H](C)O)[C@@H](C)O)C(=O)N[C@@H](CC(=O)O)C(=O)N[C@@H](CO)C(=O)N[C@@H](CCCCN)C(=O)N[C@@H](CCCNC(=N)N)C(=O)N[C@@H](C)C(=O)N[C@@H](CCC(N)=O)C(=O)N[C@@H](CCC(=O)O)C(=O)N[C@@H](Cc1ccccc1)C(=O)N[C@H](C(=O)N[C@@H](CCCCNC(=O)COCCOCCNC(=O)COCCOCCNC(=O)CC[C@H](NC(=O)CCCCCCCCCCCCCCCCC(=O)O)C(=O)O)C(=O)N[C@@H](Cc1c[nH]c2ccccc12)C(=O)N[C@@H](CC(C)C)C(=O)N[C@@H](CC(C)C)C(=O)N[C@@H](CC(N)=O)C(=O)N[C@H](C(N)=O)[C@@H](C)O)C(C)C [Example 35, N^ε24-([2-[2-[2-[[2-[2-[2-[[(4S)-5-hydroxy-4-[(18-hydroxy-18-oxooctadecanoyl)amino]-5-oxopentanoyl]amino]ethoxy]ethoxy]acetyl]amino]ethoxy]ethoxy]acetyl])[Lys^17,Glu^21, Lys^24, Leu^27]Glucagon peptide amide] (H-HSQGTFTSDYSKYLDSKRAQEFVK([AEEA-AEEA-γGlu-C18 diacid])WLLNT-NH2; N-terminus assumed) | 0.016
5 | CC(C)C[C@H](NC(=O)[C@H](Cc1ccc(O)cc1)NC(=O)[C@H](CCCCN)NC(=O)[C@H](CO)NC(=O)[C@H](Cc1ccc(O)cc1)NC(=O)[C@H](CC(=O)O)NC(=O)[C@H](CO)NC(=O)[C@@H](NC(=O)[C@H](Cc1ccccc1)NC(=O)[C@@H](NC(=O)CNC(=O)[C@H](CCC(N)=O)NC(=O)[C@H](CO)NC(=O)[C@@H](N)Cc1c[nH]cn1)[C@@H](C)O)[C@@H](C)O)C(=O)N[C@@H](CC(=O)O)C(=O)N[C@@H](CCC(=O)O)C(=O)N[C@@H](CCCCN)C(=O)N[C@@H](C)C(=O)N[C@@H](C)C(=O)N[C@@H](CCC(N)=O)C(=O)N[C@@H](CCC(=O)O)C(=O)N[C@@H](Cc1ccccc1)C(=O)N[C@H](C(=O)N[C@@H](CCCCNC(=O)COCCOCCNC(=O)COCCOCCNC(=O)CC[C@H](NC(=O)CCCCCCCCCCCCCCCCC(=O)O)C(=O)O)C(=O)N[C@@H](Cc1c[nH]c2ccccc12)C(=O)N[C@@H](CC(C)C)C(=O)N[C@@H](CC(C)C)C(=O)N[C@@H](CC(N)=O)C(=O)N[C@H](C(N)=O)[C@@H](C)O)C(C)C [Example 36, N^ε24-([2-[2-[2-[[2-[2-[2-[[(4S)-5-hydroxy-4-[(18-hydroxy-18-oxooctadecanoyl)amino]-5-oxopentanoyl]amino]ethoxy]ethoxy]acetyl]amino]ethoxy]ethoxy]acetyl])[Glu^16, Lys^17, Ala^18,Glu^21, Lys^24, Leu^27]Glucagon peptide amide] (H-HSQGTFTSDYSKYLDEKAAQEFVK([AEEA-AEEA-γGlu-C18 diacid])WLLNT-NH2; N-terminus assumed) | 0.048
6 | CC(C)C[C@H](NC(=O)[C@H](Cc1ccc(O)cc1)NC(=O)[C@H](CCCCN)NC(=O)[C@H](CO)NC(=O)[C@H](Cc1ccc(O)cc1)NC(=O)[C@H](CC(=O)O)NC(=O)[C@H](CO)NC(=O)[C@@H](NC(=O)[C@H](Cc1ccccc1)NC(=O)[C@@H](NC(=O)CNC(=O)[C@H](CCC(N)=O)NC(=O)[C@H](CO)NC(=O)[C@@H](N)Cc1c[nH]cn1)[C@@H](C)O)[C@@H](C)O)C(=O)N[C@@H](CC(=O)O)C(=O)N[C@@H](CO)C(=O)N[C@@H](CCCCN)C(=O)N[C@@H](C)C(=O)N[C@@H](C)C(=O)N[C@@H](CCC(N)=O)C(=O)N[C@@H](CCC(=O)O)C(=O)N[C@@H](Cc1ccccc1)C(=O)N[C@H](C(=O)N[C@@H](CCCCNC(=O)COCCOCCNC(=O)COCCOCCNC(=O)CC[C@H](NC(=O)CCCCCCCCCCCCCCCCC(=O)O)C(=O)O)C(=O)N[C@@H](Cc1c[nH]c2ccccc12)C(=O)N[C@@H](CC(C)C)C(=O)N[C@@H](CC(C)C)C(=O)N[C@@H](CC(N)=O)C(=O)N[C@H](C(N)=O)[C@@H](C)O)C(C)C [Example 37, N^ε24-([2-[2-[2-[[2-[2-[2-[[(4S)-5-hydroxy-4-[(18-hydroxy-18-oxooctadecanoyl)amino]-5-oxopentanoyl]amino]ethoxy]ethoxy]acetyl]amino]ethoxy]ethoxy]acetyl])[Lys^17, Ala^18,Glu^21, Lys^24, Leu^27] Glucagon peptide amide] (H-HSQGTFTSDYSKYLDSKAAQEFVK([AEEA-AEEA-γGlu-C18 diacid])WLLNT-NH2; N-terminus assumed) | 0.033
